Source: the supplement of paper PMC4862054

Key:
Conditions in all cases: incubation time: 72 h
[1] = tested on: BT-474; assay: normalised response (% of control), CellTox Green; higher = less cell death (100 = DMSO, 0 = benzethonium chloride kill control)
Outline: (§1)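 Plates were normalised with 0.1 % DMSO as 100 and a positive kill control as 0. Breast cancer cell lines in 20 µl suspension had been seeded into 384-well plates with compound at 5 concentrations in 10-fold steps over a compound-specific 10,000-fold range, incubated 72 h, and read for CellTox Green fluorescence (485/520 nm) followed by CellTiter-Glo luminescence. Each value is the normalised signal at a single concentration.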

[2] = tested on: BT-549; assay: as above
Outline: as §1

[3] = tested on: CAL-120; assay: as above
Outline: as §1

[4] = tested on: CAL-148; assay: as above
Outline: as §1

[5] = tested on: CAL-51; assay: as above
Outline: as §1

[6] = tested on: CAL-85-1; assay: as above
Outline: as §1

[7] = tested on: DU-4475; assay: as above
Outline: as §1

[8] = tested on: HCC1599; assay: as above
Outline: as §1

[9] = tested on: HDQ-P1; assay: as above
Outline: as §1

[10] = tested on: MCF-10A; assay: as above
Outline: as §1

[11] = tested on: MDA-MB-231; assay: as above
Outline: as §1

[12] = tested on: MDA-MB-436; assay: as above
Outline: as §1

[13] = tested on: MDA-MB-453; assay: as above
Outline: as §1

[14] = tested on: MDA-MB-468; assay: as above
Outline: as §1

[15] = tested on: BT-474; assay: normalised response (% of control), CellTiter-Glo; higher = more viable cells (100 = DMSO, 0 = benzethonium chloride kill control)
Protocol: (§2)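 DSRT, 72 h incubation, CellTox Green / CellTiter-Glo readout. Signal is normalised to DMSO and benzethonium chloride controls. Value is the normalised response at dose 3.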

[16] = tested on: BT-549; assay: as above
Protocol: as §2

[17] = tested on: CAL-120; assay: as above
Protocol: as §2

[18] = tested on: CAL-148; assay: as above
Protocol: as §2

[19] = tested on: CAL-51; assay: as above
Protocol: as §2

[20] = tested on: CAL-85-1; assay: as above
Protocol: as §2

[21] = tested on: DU-4475; assay: as above
Protocol: as §2

[22] = tested on: HCC1143; assay: as above
Protocol: as §2

[23] = tested on: HCC1599; assay: as above
Protocol: as §2

[24] = tested on: HCC1937; assay: as above
Protocol: as §2

[25] = tested on: HDQ-P1; assay: as above
Protocol: as §2

[26] = tested on: Hs578T; assay: as above
Protocol: as §2

[27] = tested on: MCF-10A; assay: as above
Protocol: as §2

[28] = tested on: MDA-MB-231; assay: as above
Protocol: as §2

[29] = tested on: MDA-MB-436; assay: as above
Protocol: as §2

[30] = tested on: MDA-MB-453; assay: as above
Protocol: as §2

[31] = tested on: MDA-MB-468; assay: as above
Protocol: as §2

[32] = tested on: MFM-223; assay: as above
Protocol: as §2

[33] = tested on: SK-BR-3; assay: as above
Protocol: as §2

[34] = tested on: HCC1143; assay: normalised response (% of control), CellTox Green; higher = less cell death (100 = DMSO, 0 = benzethonium chloride kill control)
Outline: as §1

[35] = tested on: MFM-223; assay: as above
Outline: as §1

[36] = tested on: HCC1937; assay: as above
Outline: as §1

[37] = tested on: Hs578T; assay: as above
Outline: as §1

[38] = tested on: BT-474; assay: normalised response (% of control), CellTiter-Glo; higher = more viable cells (100 = DMSO, 0 = benzethonium chloride kill control); remark: listed apart in the source
Outline: as §1

[39] = tested on: BT-549; assay: as above; remark: listed apart in the source
Outline: as §1

[40] = tested on: CAL-120; assay: as above; remark: listed apart in the source
Outline: as §1

[41] = tested on: CAL-148; assay: as above; remark: listed apart in the source
Outline: as §1

[42] = tested on: CAL-51; assay: as above; remark: listed apart in the source
Outline: as §1

[43] = tested on: CAL-85-1; assay: as above; remark: listed apart in the source
Outline: as §1

[44] = tested on: DU-4475; assay: as above; remark: listed apart in the source
Outline: as §1

[45] = tested on: HCC1143; assay: as above; remark: listed apart in the source
Outline: as §1

[46] = tested on: HCC1599; assay: as above; remark: listed apart in the source
Outline: as §1

[47] = tested on: HCC1937; assay: as above; remark: listed apart in the source
Outline: as §1

[48] = tested on: HDQ-P1; assay: as above; remark: listed apart in the source
Outline: as §1

[49] = tested on: Hs578T; assay: as above; remark: listed apart in the source
Outline: as §1

[50] = tested on: MCF-10A; assay: as above; remark: listed apart in the source
Outline: as §1

[51] = tested on: MDA-MB-231; assay: as above; remark: listed apart in the source
Outline: as §1

[52] = tested on: MDA-MB-436; assay: as above; remark: listed apart in the source
Outline: as §1

[53] = tested on: MDA-MB-453; assay: as above; remark: listed apart in the source
Outline: as §1

[54] = tested on: MDA-MB-468; assay: as above; remark: listed apart in the source
Outline: as §1

[55] = tested on: MFM-223; assay: as above; remark: listed apart in the source
Outline: as §1

[56] = tested on: SK-BR-3; assay: as above; remark: listed apart in the source
Outline: as §1

`Cn1cc(C[C@@H](N)C(=O)O)c2ccccc21` [1-methyl-D-tryptophan] (50 nM) was tested, and the normalised response [1] was 99.9%, the normalised response [2] was 88% and the normalised response [3] was 96.8%. For the same compound, the normalised response [4] was 68.5%, the normalised response [5] was 80.4% and the normalised response [6] was 98.5%. The normalised response [7] was 103%, the normalised response [8] was 94.2% and the normalised response [9] was 105%. The normalised response [10] was 102%, the normalised response [11] was 83% and the normalised response [12] was 73.2%. The normalised response [13] was 105%, the normalised response [14] was 99.9% and the normalised response [15] was 103%. The normalised response [16] was 107%, the normalised response [17] was 104% and the normalised response [18] was 90.1%. It also gave a normalised response [19] of 67.8%, a normalised response [20] of 102% and a normalised response [21] of 100%. The normalised response [22] was 99%, the normalised response [23] was 92.6% and the normalised response [24] was 96.2%. It also gave a normalised response [25] of 102%, a normalised response [26] of 95.4% and a normalised response [27] of 102%. The normalised response [28] was 98.5%, the normalised response [29] was 102% and the normalised response [30] was 96%. The normalised response [31] was 92.6%, the normalised response [32] was 93.4% and the normalised response [33] was 90.8%.

In the case of `CO[C@H]1C[C@@H]2CC[C@@H](C)[C@@](O)(O2)C(=O)C(=O)N2CCCC[C@H]2C(=O)O[C@H]([C@H](C)C[C@@H]2CC[C@@H](O)[C@H](OC)C2)CC(=O)[C@H](C)/C=C(\C)[C@@H](O)[C@@H](OC)C(=O)[C@H](C)C[C@H](C)/C=C/C=C/C=C/1C` [Sirolimus] (1 nM), the normalised response [1] was 102%, the normalised response [2] was 78.5% and the normalised response [3] was 97.4%. The normalised response [4] was 103%, the normalised response [5] was 107% and the normalised response [6] was 105%. It also gave a normalised response [7] of 105%, a normalised response [34] of 78.7% and a normalised response [8] of 94.8%. The normalised response [9] was 97.1%, the normalised response [10] was 91.9% and the normalised response [11] was 109%. It also gave a normalised response [12] of 79.2%, a normalised response [13] of 109% and a normalised response [14] of 119%. It also gave a normalised response [35] of 92.6%, a normalised response [15] of 90.5% and a normalised response [16] of 83.5%. For the same compound, the normalised response [17] was 98%, the normalised response [18] was 94.2% and the normalised response [19] was 90.1%. For the same compound, the normalised response [20] was 78.4%, the normalised response [21] was 98.7% and the normalised response [22] was 92.5%. For the same compound, the normalised response [23] was 103%, the normalised response [24] was 85.6% and the normalised response [25] was 102%. For the same compound, the normalised response [26] was 88.2%, the normalised response [27] was 112% and the normalised response [28] was 101%. The normalised response [29] was 92.4%, the normalised response [30] was 93.7% and the normalised response [31] was 71.1%. It also gave a normalised response [32] of 96.5% and a normalised response [33] of 95.4%.

`COc1cc(Nc2ncc(F)c(Nc3ccc4c(n3)N(COP(=O)(O)O)C(=O)C(C)(C)O4)n2)cc(OC)c1OC` [Fostamatinib] (250 nM) showed a normalised response [1] of 97.8%, a normalised response [2] of 82.7% and a normalised response [3] of 101%. For the same compound, the normalised response [4] was 93.1%, the normalised response [5] was 92.2% and the normalised response [6] was 106%. For the same compound, the normalised response [7] was 100%, the normalised response [34] was 76.3% and the normalised response [8] was 92.7%. For the same compound, the normalised response [36] was 125%, the normalised response [9] was 109% and the normalised response [37] was 97.7%. For the same compound, the normalised response [10] was 102%, the normalised response [11] was 53.7% and the normalised response [12] was 86.6%. The normalised response [13] was 107%, the normalised response [14] was 57% and the normalised response [35] was 101%. It also gave a normalised response [38] of 88.2%, a normalised response [39] of 93.7% and a normalised response [40] of 86.9%. It also gave a normalised response [41] of 91.4%, a normalised response [42] of 105% and a normalised response [43] of 96.1%. It also gave a normalised response [44] of 94.8%, a normalised response [45] of 95% and a normalised response [46] of 110%. It also gave a normalised response [47] of 94.9%, a normalised response [48] of 103% and a normalised response [49] of 91.3%. It also gave a normalised response [50] of 84%, a normalised response [51] of 85% and a normalised response [52] of 105%. For the same compound, the normalised response [53] was 93.7%, the normalised response [54] was 90.5% and the normalised response [55] was 63.1%. For the same compound, the normalised response [56] was 98.1%.

Compound `CCc1cnn2c(NCc3ccc[n+]([O-])c3)cc(N3CCCC[C@H]3CCO)nc12` [Dinaciclib] (100 nM) has a normalised response [1] of 71%, a normalised response [2] of 53.8% and a normalised response [3] of 87.7%. For the same compound, the normalised response [4] was 50.9%, the normalised response [5] was 50.7% and the normalised response [6] was 21.7%. For the same compound, the normalised response [7] was 96.3%, the normalised response [34] was 88.7% and the normalised response [8] was 71.3%. For the same compound, the normalised response [36] was 87.2%, the normalised response [9] was 63.2% and the normalised response [37] was 38%. It also gave a normalised response [10] of 65%, a normalised response [11] of -7.86% and a normalised response [12] of 105%. For the same compound, the normalised response [13] was 100%, the normalised response [14] was -14.9% and the normalised response [35] was 30.3%. It also gave a normalised response [38] of 20.7%, a normalised response [39] of 12.7% and a normalised response [40] of 36.6%. For the same compound, the normalised response [41] was 52.9%, the normalised response [42] was 10.2% and the normalised response [43] was 8.18%. It also gave a normalised response [44] of 18.6%, a normalised response [45] of 18.8% and a normalised response [46] of 10.5%. The normalised response [47] was 27.6%, the normalised response [48] was 22.3% and the normalised response [49] was 12.9%. The normalised response [50] was 28.7%, the normalised response [51] was 5.94% and the normalised response [52] was 15.8%. It also gave a normalised response [53] of 15.5%, a normalised response [54] of 9.07% and a normalised response [55] of 14.8%. For the same compound, the normalised response [56] was 4.18%.
